Data reported in paper PMC3422668 (Journal of immunology (Baltimore, Md. : 1950), 2012).
“Also recorded” adds a separate entry of the source.

Tests used:
mAb 64-3-7 = type: binding, murine; details: SPR, BIAcore T100; graded peptide concentrations 11, 33 and 100 μM; Figure 1B
mAb 64-3-7 Fab = test: SPR direct binding of soluble 64-3-7 Fab to peptide coupled to a CM5 chip; set-up: species or system murine; details: similarly coupled peptide surface, data not shown
[1] = target: T1, H-2L^d octamer peptide EPQAPWME, residues 46-53 (mouse); test: crystal structure
T1 chain: EPQAPWME

[2] = target: T2, H-2L^d 6-mer peptide EPQAPW (Mus musculus, H-2Ld); test: SPR
T2 chain: EPQAPW

[3] = target: T3, H-2L^d heptamer peptide EPQAPWM (residues 46 to 52) (Mus musculus, H-2Ld); test: SPR
T3 chain: EPQAPWM

**Q.** Which “competition for antibody binding to pL^d35-55-coupled surface” value (from here on “competition for antibody binding”) (mAb 64-3-7) does the source give for PQAPWM here?
**A.** intermediate activity; also recorded: only binds weakly

**Q.** Which “competition for antibody binding” value (mAb 64-3-7) does the source give for EPQAPWM here?
**A.** compete effectively

**Q.** EPQAPW was tested. Which “competition for antibody binding” value (mAb 64-3-7) did it give?
**A.** intermediate activity

**Q.** How did the “direct binding of 64-3-7 Fab to peptide-coupled biosensor surface” value (mAb 64-3-7 Fab) turn out when RFDSDAENPRYEPRARWMEQE [pK^b35-55] was run?
**A.** no detectable binding

**Q.** How did the “direct binding of 64-3-7 Fab to peptide-coupled biosensor surface” value (mAb 64-3-7 Fab) turn out when “SNVREIKNRWRSTVQKLK [control peptide, reference compound]” was run?
**A.** no detectable binding

**Q.** For QAPWM, which “competition for antibody binding” value (mAb 64-3-7) is on record?
**A.** fails to block

B1: Fab fragment of mAb 64-3-7 (Fab, V domains shown)
VH: EVKLVESEGGLVQPGSSMKLSCTASGFTFSDYYMAWVRQVPEKGLEWVANINYDGSSTYYLDSLKGRFIISRDIAKNILYLQMSSLRCEDTATYYCARLTNGYLDVWGAGTTVTVSS
VL: DVVMTQTPLSLPVSLGDQASISCRSSQSLVHSNGNTYLHWYLQKPGQSPNLLIYKVSNRFSGVPDRFSGSGSGTDFTLKISRVEAEDLGVYFCSQSTHVPTFGGGTKLEIK
**Q.** Does B1 bind [1]?
**A.** binds

B2: mAb 64-3-7 (antibody, V domains shown)
VH: EVKLVESEGGLVQPGSSMKLSCTASGFTFSDYYMAWVRQVPEKGLEWVANINYDGSSTYYLDSLKGRFIISRDIAKNILYLQMSSLRCEDTATYYCARLTNGYLDVWGAGTTVTVSS
VL: DVVMTQTPLSLPVSLGDQASISCRSSQSLVHSNGNTYLHWYLQKPGQSPNLLIYKVSNRFSGVPDRFSGSGSGTDFTLKISRVEAEDLGVYFCSQSTHVPTFGGGTKLEIK
**Q.** Does B2 bind [2]?
**A.** binds

**Q.** Does B2 bind [3]?
**A.** binds
